How the values were obtained:
[1] = target: T1, MCR-C (C-terminal domain of malonyl-CoA reductase) (Chloroflexus aurantiacus, UniProt A9WIU3); test: NADPH absorbance at […] nm, product inhibition; type: biochemical
[2] = target: T1, MCR-C (C-terminal domain of malonyl-CoA reductase); test: NADPH absorbance at […] nm, dead-end inhibition; type: biochemical

CC(C)(COP(=O)(O)OP(=O)(O)OC[C@H]1O[C@@H](n2cnc3c(N)ncnc32)[C@H](O)[C@@H]1OP(=O)(O)O)[C@@H](O)C(=O)NCCC(=O)NCCS [CoA]
Ki [1]: 238 ± 14 µM

NC(=O)c1ccc[n+]([C@@H]2O[C@H](COP(=O)(O)OP(=O)(O)OC[C@H]3O[C@@H](n4cnc5c(N)ncnc54)[C@H](OP(=O)(O)O)[C@@H]3O)[C@@H](O)[C@H]2O)c1 [NADP^+]
Ki [1]: 104 ± 15 µM

O=CC(=O)O [glyoxylic acid]
Ki [2]: 6 ± 0.8 µM

Source: PMC12786355 (Biochimica et biophysica acta. Proteins and proteomics, 2024)
